PubChem BioAssay (NCI)
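Protocol summary: plate cells (96-well), add compound at 5 concentrations, incubate 48 h, interpolate endpoints linearly. The concentration for 50% growth inhibition is given as GI50. The concentration for full growth arrest is given as TGI.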

How the values were obtained:
Experiment in all cases: NCI anticancer screen, dose series, 48 h
HT29 colon = test system: HT29 colon
CCRF-CEM leukemia = test system: CCRF-CEM leukemia
OVCAR-4 ovarian = test system: OVCAR-4 ovarian
PC-3 prostate = test system: PC-3 prostate
HCC-2998 colon = test system: HCC-2998 colon
CAKI-1 renal = test system: CAKI-1 renal
786-0 renal = test system: 786-0 renal
SK-OV-3 ovarian = test system: SK-OV-3 ovarian
LOX IMVI melanoma = test system: LOX IMVI melanoma
SF-539 CNS = test system: SF-539 CNS

Compound: CC1COCCN1CC#CCOC(=O)c1cc2ccccc2oc1=O (stereo not given)
- GI50 (HT29 colon): > 100 µM
- TGI (HT29 colon): > 100 µM
- GI50 (CCRF-CEM leukemia): > 100 µM
- TGI (CCRF-CEM leukemia): > 100 µM
- GI50 (OVCAR-4 ovarian): > 100 µM
- TGI (OVCAR-4 ovarian): > 100 µM
- GI50 (PC-3 prostate): > 100 µM
- TGI (PC-3 prostate): > 100 µM
- GI50 (HCC-2998 colon): > 100 µM
- TGI (HCC-2998 colon): > 100 µM
- GI50 (CAKI-1 renal): > 100 µM
- TGI (CAKI-1 renal): > 100 µM
- GI50 (786-0 renal): > 100 µM
- TGI (786-0 renal): > 100 µM
- GI50 (SK-OV-3 ovarian): > 100 µM
- TGI (SK-OV-3 ovarian): > 100 µM
- GI50 (LOX IMVI melanoma): > 100 µM
- TGI (LOX IMVI melanoma): > 100 µM
- GI50 (SF-539 CNS): > 100 µM
- TGI (SF-539 CNS): > 100 µM

Compound: CC/C(=N/N=C(N)N)c1ccc(NC(=O)Nc2ccc(/C(CC)=N/N=C(N)N)cc2)cc1
- GI50 (HT29 colon): 7.12 µM
- TGI (HT29 colon): 28.1 µM
- GI50 (CCRF-CEM leukemia): 5.8 µM
- TGI (CCRF-CEM leukemia): 28.7 µM
- GI50 (OVCAR-4 ovarian): 6.08 µM
- TGI (OVCAR-4 ovarian): 44.8 µM
- GI50 (PC-3 prostate): 6.27 µM
- TGI (PC-3 prostate): 33.7 µM
- GI50 (HCC-2998 colon): 7.56 µM
- TGI (HCC-2998 colon): 36.3 µM
- GI50 (CAKI-1 renal): 15.1 µM
- TGI (CAKI-1 renal): 39.4 µM
- GI50 (786-0 renal): 9.02 µM
- TGI (786-0 renal): 30.9 µM
- GI50 (SK-OV-3 ovarian): 16.5 µM
- TGI (SK-OV-3 ovarian): 64.5 µM
- GI50 (LOX IMVI melanoma): 9.41 µM
- TGI (LOX IMVI melanoma): 35 µM
- GI50 (SF-539 CNS): 8.04 µM
- TGI (SF-539 CNS): 35.9 µM

Compound: COc1ccc2c(c1)C(=O)c1c-2c(N2CCN(C(=O)CCNCCNCCO)CC2)nc2ccccc12
- GI50 (HT29 colon): 4.6 µM
- TGI (HT29 colon): 16.7 µM
- GI50 (CCRF-CEM leukemia): 5.32 µM
- TGI (CCRF-CEM leukemia): 23.7 µM
- GI50 (OVCAR-4 ovarian): 21.2 µM
- TGI (OVCAR-4 ovarian): 42.2 µM
- GI50 (PC-3 prostate): 13.2 µM
- TGI (PC-3 prostate): 27.9 µM
- GI50 (HCC-2998 colon): 13.8 µM
- TGI (HCC-2998 colon): 30.1 µM
- GI50 (CAKI-1 renal): 24 µM
- TGI (CAKI-1 renal): 53.3 µM
- GI50 (786-0 renal): 11.4 µM
- TGI (786-0 renal): 25.6 µM
- GI50 (SK-OV-3 ovarian): 15.9 µM
- TGI (SK-OV-3 ovarian): 30.9 µM
- GI50 (LOX IMVI melanoma): 12.3 µM
- TGI (LOX IMVI melanoma): 31.6 µM
- GI50 (SF-539 CNS): 14.5 µM
- TGI (SF-539 CNS): 29.9 µM

Compound: CC(C)[C@H](C(=O)O[C@@H]1/C=C/C(=O)O[C@@H](C)CCC/C=C/[C@@H]2C[C@H](O)C[C@H]21)N(C)C
- GI50 (HT29 colon): 4.67 µM
- TGI (HT29 colon): > 36 µM
- GI50 (CCRF-CEM leukemia): 6.05 µM
- TGI (CCRF-CEM leukemia): 75 µM
- GI50 (OVCAR-4 ovarian): 8.7 µM
- TGI (OVCAR-4 ovarian): > 94.5 µM
- GI50 (PC-3 prostate): 10.9 µM
- TGI (PC-3 prostate): > 57.8 µM
- GI50 (HCC-2998 colon): 12.9 µM
- TGI (HCC-2998 colon): 62.2 µM
- GI50 (CAKI-1 renal): 19.4 µM
- TGI (CAKI-1 renal): > 73.8 µM
- GI50 (786-0 renal): 6.15 µM
- TGI (786-0 renal): 21.1 µM
- GI50 (SK-OV-3 ovarian): 17.9 µM
- TGI (SK-OV-3 ovarian): > 96.7 µM
- GI50 (LOX IMVI melanoma): 9.59 µM
- TGI (LOX IMVI melanoma): 26.9 µM
- GI50 (SF-539 CNS): 10.2 µM
- TGI (SF-539 CNS): 58.9 µM

Compound: O=C1C(Br)=CC2(C=C1Br)CCNc1c(O)c3c4c(c12)=NCCC=4C=N3
- TGI (HT29 colon): 0.168 µM
- TGI (CCRF-CEM leukemia): 0.0734 µM
- TGI (OVCAR-4 ovarian): 0.211 µM
- TGI (PC-3 prostate): 0.993 µM
- TGI (HCC-2998 colon): 1.21 µM
- TGI (CAKI-1 renal): 0.309 µM
- TGI (786-0 renal): 0.272 µM
- TGI (SK-OV-3 ovarian): 4.26 µM
- TGI (LOX IMVI melanoma): 0.254 µM
- TGI (SF-539 CNS): 0.557 µM

Compound: FC(F)(F)c1ccc(NCc2nc3ccccc3[nH]2)cc1
- GI50 (HT29 colon): 27.9 µM
- TGI (HT29 colon): 81.3 µM
- GI50 (CCRF-CEM leukemia): 32.5 µM
- TGI (CCRF-CEM leukemia): > 100 µM
- GI50 (OVCAR-4 ovarian): 27.1 µM
- TGI (OVCAR-4 ovarian): > 100 µM
- GI50 (PC-3 prostate): 18.8 µM
- TGI (PC-3 prostate): 75.8 µM
- GI50 (HCC-2998 colon): 23.8 µM
- TGI (HCC-2998 colon): 73.5 µM
- GI50 (CAKI-1 renal): 19.4 µM
- TGI (CAKI-1 renal): 49.4 µM
- GI50 (786-0 renal): 30.7 µM
- TGI (786-0 renal): > 100 µM
- GI50 (SK-OV-3 ovarian): 45.5 µM
- TGI (SK-OV-3 ovarian): > 100 µM
- GI50 (LOX IMVI melanoma): 23.2 µM
- TGI (LOX IMVI melanoma): > 100 µM
- GI50 (SF-539 CNS): 36.8 µM
- TGI (SF-539 CNS): > 100 µM

Compound: O=c1c2cc(O)c(O)cc2oc2cc(O)c(C3OC(CO)C(O)C(O)C3O)c(O)c12 (stereo not given)
- TGI (HT29 colon): > 100 µM
- TGI (CCRF-CEM leukemia): > 100 µM
- TGI (OVCAR-4 ovarian): > 100 µM
- TGI (PC-3 prostate): > 100 µM
- TGI (HCC-2998 colon): > 100 µM
- TGI (CAKI-1 renal): > 100 µM
- TGI (786-0 renal): > 100 µM
- TGI (SK-OV-3 ovarian): > 100 µM
- TGI (LOX IMVI melanoma): > 100 µM
- TGI (SF-539 CNS): > 100 µM
